Our source for the TGI and GI50 values is PubChem BioAssay (NCI).

Molecules are shown by their SMILES.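 Test compounds were applied to cells in 96-well plates for 48 hours at 5 doses. GI50: concentration for 50% inhibition of growth. TGI marks complete inhibition of growth.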 Bounds are passed on as bounds.

What all share (experiment): inhibition of tumour cell growth, NCI panel, 48 h
The test system of test [1] is DMS 273 small cell lung.
The subject of test [2] is HCC-2998 colon.
Test [3] has as its system K-562 leukemia.
For test [4], the system named is SW-620 colon.
The subject of test [5] is SNB-19 CNS.
In test [6] the test system is DLD-1 colon.
Test [7] relates to HOP-92 NSCLC.
The test system of test [8] is RXF 393 renal.
For test [9], the system named is MDA-MB-435.
For test [10], the system named is MDA-MB-231 breast.

As for `C(=C\C(Sc1ccccc1)c1ccccc1)/NNC1=NC(c2ccccc2)C(c2ccccc2)=NN1` (configuration not stated), the TGI in test [1] is above 100 µM; in [2], above 100 µM; in [3], 38 µM; in [4] it was above 100 µM; in test [5], above 100 µM; in test [6], 56 µM. In test [7], this compound showed a TGI of 80.7 µM.
For the compound `CCOC(=O)c1[nH]c2cc(OC)c(OC)cc2c1CN(C)C`, the TGI in [2], in test [8], in test [3], in test [4], in test [5] and in [6] was above 100 µM each time. Also, in test [7], the TGI was above 100 µM.
On to `O=C(N/C(=C\c1ccccc1O)c1nc2ccccc2[nH]1)c1ccccc1`, for which the TGI in [1], in test [2], in [8], in test [3], in [4] and in test [5] was above 100 µM throughout. This compound had a TGI in test [7] above 100 µM.
As to `CC(=O)NNc1nc(C)c(C(=O)NNC(=O)C(=O)Nc2c([N+](=O)[O-])ccc(C)c2C)s1`, the TGI in test [1], in [2], in [3], in test [4], in [5] and in test [6] was above 100 µM each time. The TGI in [7] was above 100 µM.
As for `CC1(C)C(=O)C(C)(C)C1=NNC(N)=S`, the TGI in [1], in [2], in [8], in test [3], in [4] and in [5] was above 100 µM each time. Besides, the TGI in test [7] is above 100 µM.
Consider `O=C(N=c1nc(NC(=O)c2ccccc2)ss1)c1ccccc1`, for which the TGI is 89.1 µM in test [1]; above 100 µM in test [2]; above 100 µM in test [8]; above 100 µM in [3]; above 100 µM in test [4]; above 100 µM in [5].
On to `Clc1ccc2c(c1)N(C1CCCN(Cc3ccccc3)C1)c1ccccc1S2` (configuration not stated), for which the GI50 in test [9] was 1.79 µM; in test [2] it was 5.59 µM; in test [8] it was 3.69 µM; in [3] it was 3.19 µM; in test [10], 3.35 µM; in [4], 2.98 µM. In addition, the GI50 is 6.02 µM in test [5] and 4.68 µM in [7]. In addition, the TGI is 3.72 µM in test [9]; 32.3 µM in [2]; 25.3 µM in test [8]; above 100 µM in test [3]; 13.1 µM in [10]; 32.5 µM in [4]. In addition, the TGI is above 100 µM in [5] and 74.2 µM in test [7].
Turning to `OC1CCCC2CCC[N-]C12.OC1CCCC2CCC[N-]C12.[O]=[V][OH]` (configuration not stated), the GI50 was 7.44 µM in test [9]; 12.7 µM in [2]; 15.6 µM in test [8]; 1.93 µM in test [3]; 3.55 µM in [10]; 3.5 µM in test [4]. Besides, the GI50 in [5] is 53.1 µM; in [7], 22.9 µM. Further, the TGI was above 100 µM in test [9]; above 100 µM in test [2]; 35.4 µM in [8]; 14.4 µM in test [3]; 16.5 µM in test [10]; 37.5 µM in [4]. Also, the TGI in [5] and in test [7] was above 100 µM each time.
For `COc1ccc(S(=O)(=O)Nc2c(/C=C\c3cc(OC)c(OC)c(OC)c3)ccc(OC)c2O)cc1`, the GI50 in [9] was 0.019 µM; in [2] it was 0.0316 µM; in [8], 0.0318 µM; in test [3] it was 0.0286 µM; in test [10], 0.0503 µM; in [4] it was 0.0408 µM. Also, the GI50 was 0.0602 µM in [5] and 1.6 µM in [7]. The TGI in test [9] is 0.0484 µM; in [2], 29.9 µM; in [8], 21.7 µM; in [3] it was above 100 µM; in test [10] it was 2.35 µM; in test [4], above 100 µM. Further, the values for the TGI in test [5] and in test [7] were above 100 µM and 39.7 µM, respectively.
For the compound `CC(=O)Nc1cc2cc(NS(=O)(=O)c3ccc(Cl)c(Cl)c3)ccc2oc1=O`, the TGI in test [9] was above 100 µM; in test [2] it was above 100 µM; in test [8], 25.6 µM; in test [3], above 100 µM; in [10] it was 46.2 µM; in test [4], above 100 µM. The TGI in test [5] was above 100 µM; in [7], 60.5 µM.
In the case of `COc1cc(-c2nc3ccccc3o2)cc(CN2CCCCC2)c1O`, the GI50 in test [9] is 1.7 µM; in [2], 4.73 µM; in [8], 17.1 µM; in test [3], 8.18 µM; in [10], 12.2 µM; in test [4], 1.92 µM. Also, the GI50 in [5] is 5.44 µM; in [7], 27 µM. Moreover, the TGI in test [9] was 3.53 µM; in test [2], 22.4 µM; in test [8] it was 52 µM; in test [3] it was above 100 µM; in [10] it was above 100 µM; in test [4] it was 8.13 µM. Further, the TGI is 26.9 µM in test [5] and above 100 µM in [7].
As for `Nc1nc2c(-c3ccc([N+](=O)[O-])cc3)nnn2c2ccccc12`, the TGI in [1], in [2], in [3], in test [4], in test [5] and in [6] was above 100 µM each time. Further, the TGI in [7] is above 100 µM.
Turning to `Cc1c2ccncc2c(C)c2c1sc1ccccc12`, the TGI amounted to 39.3 µM in test [9]; 25.9 µM in test [2]; 23.9 µM in test [8]; 41.1 µM in test [3]; 44.1 µM in test [10]; 22.1 µM in test [4]. The TGI in test [5] stood at 26.7 µM; in [7], 28.5 µM.
Take `COS(C)(=O)=O`: the TGI in [9], in test [2], in test [8], in test [3], in [10] and in test [4] was above 2 µM throughout. Moreover, the TGI in test [5] and in [7] was above 2 µM in each case.
As for `O=C1C=C(OCC=C(C(F)(F)F)C(F)(F)F)c2ccccc2C1=O`, the GI50 in test [9] is 1.74 µM; in [2], 1.84 µM; in [8] it was 1.69 µM; in [3] it was 1.97 µM; in [10], 1.9 µM; in test [4] it was 1.92 µM. Also, the GI50 in [5] was 5.62 µM; in test [7] it was 1.9 µM. The TGI in test [9] came out at 3.3 µM; in test [2], 3.73 µM; in test [8], 3.18 µM; in test [3] it was 5.42 µM; in [10], 4.2 µM; in test [4], 3.91 µM. The TGI worked out at 19.5 µM in test [5] and 4.37 µM in test [7].
For `O=C(Nc1cc(Cl)ccc1O)c1ccccc1Nc1ccnc(C(F)(F)F)c1`, the GI50 was 3.33 µM in [9]; 3 µM in [2]; 2.77 µM in test [8]; 3.65 µM in test [3]; 2.12 µM in [10]; 3.15 µM in [4]. Besides, the GI50 is 2.88 µM in [5] and 2.58 µM in test [7]. Moreover, the TGI was 11.3 µM in [9]; 7.41 µM in [2]; 10.6 µM in [8]; above 100 µM in test [3]; 5.19 µM in [10]; 11.7 µM in [4]. Besides, the TGI came out at 10.3 µM in test [5] and 8.72 µM in test [7].
With `C#CC1(O)C(COP(=O)(O)OCC2OC(n3cc(F)c(=O)[nH]c3=O)CC2O)OC(n2ccc(N)nc2=O)C1O` (configuration not stated), the GI50 in [9] is below 0.01 µM; in [2], below 0.01 µM; in test [8], below 0.0387 µM; in test [3], below 0.01 µM; in test [10], below 0.0133 µM; in [4] it was below 0.01 µM. For the same compound, the GI50 in test [7] is 0.196 µM. Further, the TGI in test [9] is 0.181 µM; in test [8], 1.48 µM; in test [3], above 100 µM; in test [10] it was 0.315 µM; in [4], above 100 µM; in [5], above 100 µM. In test [7], this compound returned a TGI above 46.4 µM.
On to `O=C(Nc1cc(F)c(F)cc1C(=O)O)c1ccc(-n2ccnc2)nn1`, for which the GI50 is above 100 µM in [9]; above 100 µM in test [2]; 19.6 µM in test [8]; 80.5 µM in [3]; above 100 µM in [10]; above 100 µM in test [4]. Besides, the GI50 in test [5] and in test [7] was above 100 µM in each case. The TGI in [9], in test [2], in [8], in test [3], in test [10] and in test [4] was above 100 µM in each case. Besides, the TGI in test [5] and in test [7] was above 100 µM in each case.
Consider `COc1ccc(C(=O)c2cc3c(N)c(C(=O)Nc4cccc(Br)c4C)sc3nc2C)cc1`, for which the GI50 in [9] is 0.0223 µM; in [2] it was 0.302 µM; in test [8] it was 0.0214 µM; in test [3], 0.0375 µM; in test [10], 0.13 µM; in test [4], 0.046 µM. In addition, the GI50 in [5] was 0.0541 µM; in test [7] it was below 0.0445 µM. The TGI in test [9] was 0.0585 µM; in [2], above 100 µM; in [3], above 100 µM; in test [10] it was 17.3 µM; in test [4] it was above 100 µM; in test [5], above 100 µM. Besides, the TGI in [7] worked out at 1.67 µM.
`O=C1Cc2cc(CCn3cncn3)c(Cl)cc2N1`: the GI50 in [9] was 3.22 µM; in test [2], above 100 µM; in test [8] it was 7.48 µM; in test [3] it was 7.68 µM; in test [10], 4.66 µM; in test [4], 6.6 µM. Besides, the GI50 is 70.7 µM in [5] and 3.02 µM in [7]. For the same compound, the TGI in test [9], in [2], in [8], in [3], in [10] and in test [4] was above 100 µM throughout. Also, the TGI in test [5] and in [7] was above 100 µM in each case.
For the compound `Cc1ccc(Cl)c(NS(=O)(=O)c2ccc(-c3cnc(C4CC4)o3)cc2)c1`, the GI50 was 0.0382 µM in test [9]; 0.233 µM in [2]; 0.199 µM in [8]; 0.0479 µM in test [3]; 0.651 µM in test [10]; 0.0528 µM in [4]. For the same compound, the values for the GI50 in test [5] and in [7] were 0.129 µM and 2.3 µM, respectively. For the same compound, the TGI was 2.23 µM in test [9]; 14.6 µM in [2]; above 100 µM in [8]; above 100 µM in test [3]; above 100 µM in test [10]; above 100 µM in [4]. The TGI in test [5] was above 100 µM; in test [7] it was 20.5 µM.
Consider `O=C(/C=C/c1ccccn1)c1ccc(OCc2nnc(-c3ccc(Cl)cc3)o2)cc1`, for which the GI50 was 1.71 µM in test [9]; 1.8 µM in test [2]; 1.7 µM in [8]; 2 µM in test [3]; 2.27 µM in test [10]; 1.91 µM in test [4]. The GI50 in test [5] was 1.86 µM; in test [7] it was 2.35 µM. In addition, the TGI in test [9] stood at 3.6 µM; in test [2], 3.26 µM; in [8] it was 3.17 µM; in test [3] it was 4.8 µM; in test [10] it was 5.09 µM; in [4], 3.93 µM. In addition, the TGI in [5] was determined as 3.98 µM; in test [7], 6.33 µM.
For `CS(=O)(=O)c1cccc(Nc2ncc3cc(-c4ccccc4Cl)ccc3n2)c1`, the GI50 in test [9] was 0.657 µM; in [2], 2.8 µM; in test [8], 1.05 µM; in [3], 0.165 µM; in test [10] it was 1.37 µM; in test [4] it was 1.78 µM. In addition, the GI50 in [5] is 2.46 µM; in test [7], 1.3 µM. Further, the TGI was 1.9 µM in [9]; above 33.3 µM in [2]; 6.24 µM in [8]; above 33.3 µM in test [3]; 12.2 µM in test [10]; above 33.3 µM in [4]. Moreover, the TGI is above 33.3 µM in test [5] and 7.56 µM in test [7].
